Test results from US8058475B2, “Substituted cyclohexylmethyl compounds” (Gruenenthal GmbH, priority 2005, dated 2011).
Where two headings read alike, the source gives them in different places.

Biological target: human μ-opiate receptor (Homo sapiens, UniProt P35372)
Test: Affinity for the human μ-opiate receptor ([3H]-naloxone displacement, SPA, CHO-K1 membrane preparation)
Assay type: binding
Details: for inhibition at 1 µM: read-out: μ-Opioid receptor, % inhibition [1 μM]; for Ki: read-out: μ-Opioid receptor, Ki
[1] = 1 μM test substance, inhibition of specific [3H]-naloxone binding

human μ-opiate receptor, sequence (P35372 whole entry): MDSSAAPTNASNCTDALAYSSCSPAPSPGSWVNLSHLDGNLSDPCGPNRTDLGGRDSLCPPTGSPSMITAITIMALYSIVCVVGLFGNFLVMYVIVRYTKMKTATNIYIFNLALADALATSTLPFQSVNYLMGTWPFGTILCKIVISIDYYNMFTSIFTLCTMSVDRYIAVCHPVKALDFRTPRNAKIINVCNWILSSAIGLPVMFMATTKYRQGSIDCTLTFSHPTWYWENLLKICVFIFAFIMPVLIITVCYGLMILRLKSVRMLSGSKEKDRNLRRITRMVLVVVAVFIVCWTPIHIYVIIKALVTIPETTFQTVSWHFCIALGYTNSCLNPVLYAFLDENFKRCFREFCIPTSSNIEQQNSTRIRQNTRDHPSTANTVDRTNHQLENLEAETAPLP

| Compound | inhibition at 1 µM | Ki | μ-Opioid receptor, % inhibition [1 μM] | inhibition at 1 µM [1] |
| --- | --- | --- | --- | --- |
| CC(C)S(=O)(=O)c1csc(C(=O)NC2CCC(C(c3cccs3)N(C)C)CC2)c1Cl (stereo not drawn) [compound 221, 3-chloro-4-(propan-2-sulfonyl)-thiophene-2-carboxylic acid [4-(dimethylamino-thiophen-2-yl-methyl)-cyclohexyl]-amide] | 88% | 29 nM | – | – |
| CN(C)C(c1ccc(F)cc1)C1CCC(CNC(=O)CC(C)(C)C)CC1 (stereo not drawn) [compound 322, N-{4-[dimethylamino-(4-fluoro-phenyl)-methyl]-cyclohexylmethyl}-3,3-dimethyl-butyramide] | 95% | 31 nM | – | – |
| CN(C)C(c1ccccc1)C1CCC(CCNC(=O)c2cncc(Br)c2)CC1 (stereo not drawn) [compound 473, 5-bromo-N-{2-[4-(dimethylamino-phenyl-methyl)-cyclohexyl]-ethyl}-nicotinamide] | 91% | 18 nM | – | – |
| Cc1nc(-c2ccc3c(c2)CCO3)sc1C(=O)NC1CCC(C(c2cccs2)N(C)C)CC1 (stereo not drawn) [compound 283, 2-(2,3-dihydro-benzofuran-5-yl)-4-methyl-thiazole-5-carboxylic acid [4-(dimethylamino-thiophen-2-yl-methyl)-cyclohexyl]-amide] | 72% | 150 nM | – | – |
| CN(C)C(c1ccccc1)C1CCC(CCNC(=O)c2ccc(F)c(F)c2)CC1 (stereo not drawn) [compound 444, N-{2-[4-(dimethylamino-phenyl-methyl)-cyclohexyl]-ethyl}-3,4-difluoro-benzamide] | 101% | 11 nM | – | – |
| CN(C)C(c1ccc(Cl)cc1)C1CCC(CNC(=O)c2cccc(C(F)(F)F)c2)CC1 (stereo not drawn) [compound 369, N-{4-[(4-chloro-phenyl)-dimethylamino-methyl]-cyclohexylmethyl}-3-trifluoromethyl-benzamide] | 84% | 68 nM | – | – |
| Cc1oc(-c2ccccc2)cc1C(=O)NCCC1CCC(C(c2ccccc2)N(C)C)CC1 (stereo not drawn) [compound 467, 2-methyl-5-phenyl-furan-3-carboxylic acid {2-[4-(dimethylamino-phenyl-methyl)-cyclohexyl]-ethyl}-amide] | 82% | 62 nM | – | – |
| Cc1cc(C(=O)NCC2CCC(C(c3cccs3)N(C)C)CC2)n(C(C)(C)C)n1 (stereo not drawn) [compound 366, 2-tert-butyl-5-methyl-2H-pyrazole-3-carboxylic acid [4-(dimethylamino-thiophen-2-yl-methyl)-cyclohexylmethyl]-amide] | 85% | 56 nM | – | – |
| CN(C)C(c1ccccc1)C1CCC(CCNC(=O)c2ccccc2F)CC1 (stereo not drawn) [compound 410, N-{2-[4-(dimethylamino-phenyl-methyl)-cyclohexyl]-ethyl}-2-fluoro-benzamide] | 88% | 5.8 nM | – | – |
| CN(C)C(c1ccccc1)C1CCC(NC(=O)CC(C)(C)C)CC1 (single isomer, unassigned) [compound 246, N-[4-(dimethylamino-phenyl-methyl)-cyclohexyl]-3,3-dimethyl-butyramide] | – | 39 nM | 82% | – |
| CN(C)C(c1ccccc1)C1CCC(CNC(=O)c2cccs2)CC1 (stereo not drawn) [compound 328, thiophene-2-carboxylic acid [4-(dimethylamino-phenyl-methyl)-cyclohexyl-methyl]-amide] | 94% | 16 nM | – | – |
| CN(C)C(c1ccccc1)C1CCC(CNC(=O)CC(C)(C)C)CC1 (stereo not drawn) [compound 298, N-[4-(dimethylamino-phenyl-methyl)-cyclohexylmethyl]-3,3-dimethyl-butyramide] | 100% | 4 nM | – | – |
| CN(C)C(c1cccc(F)c1)C1CCC(CNC(=O)Cc2ccccc2)CC1 (single isomer, unassigned) [compound 319, N-{4-[dimethylamino-(3-fluoro-phenyl)-methyl]-cyclohexylmethyl}-2-phenyl-acetamide] | 95% | 15 nM | – | – |
| CC(=O)N(C(C)Cc1c[nH]c2ccccc12)C1CCC(C(c2ccccc2)N(C)C)CC1 (stereo not drawn) [compound 177] | – | 7.2 nM | 86% | – |
| CN(C)C(c1ccccc1)C1CCC(CCNC(=O)c2c(F)c(F)c(F)c(F)c2F)CC1 (stereo not drawn) [compound 460, N-{2-[4-(dimethylamino-phenyl-methyl)-cyclohexyl]-ethyl}-2,3,4,5,6-pentafluoro-benzamide] | 97% | 9.5 nM | – | – |
| Cc1ccc(C(=O)NC2CCC(C(c3cccs3)N(C)C)CC2)cc1 (stereo not drawn) [compound 198, N-[4-(dimethylamino-thiophen-2-yl-methyl)-cyclohexyl]-4-methyl-benzamide] | 95% | 15 nM | – | – |
| CN(C)C(c1ccccc1)C1CCC(CCNC(=O)c2cccc(Cl)c2)CC1 (single isomer, unassigned) [compound 397, 3-chloro-N-{2-[4-(dimethylamino-phenyl-methyl)-cyclohexyl]-ethyl}-benzamide] | 97% | 7.2 nM | – | – |
| Cc1cc(C(=O)NCC2CCC(C(c3ccccc3)N(C)C)CC2)no1 (stereo not drawn) [compound 379, 5-methyl-isoxazole-3-carboxylic acid [4-(dimethylamino-phenyl-methyl)-cyclohexylmethyl]-amide] | 83% | – | – | – |

| Compound | inhibition at 1 µM | Ki | μ-Opioid receptor, % inhibition [1 μM] | inhibition at 1 µM [1] |
| --- | --- | --- | --- | --- |
| CN(C)C(c1ccccc1)C1CCC(NC(=O)c2cccs2)CC1 (single isomer, unassigned) [compound 249, thiophene-2-carboxylic acid [4-(dimethylamino-phenyl-methyl)-cyclohexyl]-amide] | – | 64 nM | 81% | – |
| CC(Oc1ccccc1)C(=O)NCC1CCC(C(c2cccc(F)c2)N(C)C)CC1 (single isomer, unassigned) [compound 332, N-{4-[dimethylamino-(3-fluoro-phenyl)-methyl]-cyclohexylmethyl}-2-phenoxy-propionamide] | 93% | 20 nM | – | – |
| Cc1ccc(Oc2ncccc2C(=O)NCC2CCC(C(c3ccc(Cl)cc3)N(C)C)CC2)cc1 (stereo not drawn) [compound 382, N-{4-[(4-chloro-phenyl)-dimethylamino-methyl]-cyclohexylmethyl}-2-p-tolyloxy-nicotinamide] | 83% | – | – | – |
| CC(Oc1ccccc1)C(=O)NCC1CCC(C(c2ccccc2)N(C)C)CC1 (stereo not drawn) [compound 323, N-[4-(dimethylamino-phenyl-methyl)-cyclohexylmethyl]-2-phenoxy-propionamide] | 95% | 15 nM | – | – |
| CN(C)C(c1ccccc1)C1CCC(CNC(=O)c2ccc(F)c(F)c2)CC1 (single isomer, unassigned) [compound 357, N-[4-(dimethylamino-phenyl-methyl)-cyclohexylmethyl]-3,4-difluoro-benzamide] | – | 60 nM | 86% | – |
| CN(C)C(c1ccccc1)C1CCC(CNC(=O)C2(c3ccc(Cl)cc3)CCCC2)CC1 (stereo not drawn) [compound 318, 1-(4-chloro-phenyl)-cyclopentane-carboxylic acid [4-(dimethylamino-phenyl-methyl)-cyclohexylmethyl]-amide] | 95% | 23 nM | – | – |
| CN(C)C(c1ccccc1)C1CCC(NC(=O)Cc2ccc(Cl)cc2)CC1 (stereo not drawn) [compound 206, 2-(4-chloro-phenyl)-N-[4-(dimethylamino-phenyl-methyl)-cyclohexyl]-acetamide] | 93% | 56 nM | – | – |
| Cc1cccc(C(=O)NCCC2CCC(C(c3cccc(F)c3)N(C)C)CC2)c1 (stereo not drawn) [compound 412, N-(2-{4-[dimethylamino-(3-fluoro-phenyl)-methyl]-cyclohexyl}-ethyl)-3-methyl-benzamide] | 93% | 32 nM | – | – |
| COc1cccc(CC(=O)NCC2CCC(C(c3ccccc3)N(C)C)CC2)c1 (stereo not drawn) [compound 349, N-[4-(dimethylamino-phenyl-methyl)-cyclohexylmethyl]-2-(3-methoxy-phenyl)-acetamide] | 89% | 50 nM | – | – |
| COc1c(C(=O)NCC2CCC(C(c3cccc(F)c3)N(C)C)CC2)csc1Cl (stereo not drawn) [compound 303, 5-chloro-4-methoxy-thiophene-3-carboxylic acid {4-[dimethylamino-(3-fluoro-phenyl)-methyl]-cyclohexylmethyl}-amide] | 99% | 19 nM | – | – |
| CN(C)C(c1ccccc1)C1CCC(CCNC(=O)c2ccc(F)cc2)CC1 (stereo not drawn) [compound 407, N-{2-[4-(dimethylamino-phenyl-methyl)-cyclohexyl]-ethyl}-4-fluoro-benzamide] | 87% | 48 nM | – | – |
| COc1cccc(OC)c1C(=O)NCC1CCC(C(c2cccs2)N(C)C)CC1 (stereo not drawn) [compound 300, N-[4-(dimethylamino-thiophen-2-yl-methyl)-cyclohexylmethyl]-2,6-dimethoxy-benzamide] | 99% | 1.4 nM | – | – |
| CN(C)C(c1ccc(F)cc1)C1CCC(CCNC(=O)c2ccccc2F)CC1 (stereo not drawn) [compound 427, N-(2-{4-[dimethylamino-(4-fluoro-phenyl)-methyl]-cyclohexyl}-ethyl)-2-fluoro-benzamide] | 84% | 40 nM | – | – |
| CN(C)C(c1ccccc1)C1CCC(NC(=O)c2cccs2)CC1 (single isomer, unassigned) [compound 245, thiophene-2-carboxylic acid [4-(dimethylamino-phenyl-methyl)-cyclohexyl]-amide] | 82% | 66 nM | – | – |
| CN(C)C(c1cccc(F)c1)C1CCC(O)(CCc2ccccc2)CC1 (stereo not drawn) [compound 153, 4-[dimethylamino-(3-fluoro-phenyl)-methyl]-1-phenethyl-cyclohexanol] | – | – | – | 87% |
| CN(C)C(c1cccc(F)c1)C1CCC(O)(c2cc(Cl)cc(Cl)c2)CC1 (stereo not drawn) [compound 155, 1-(3,5-dichloro-phenyl)-4-[dimethylamino-(3-fluoro-phenyl)-methyl]-cyclohexanol] | – | – | – | 77% |
| CN(C)C(c1cccc(F)c1)C1CCC(CNC(=O)c2csc3ccccc23)CC1 (stereo not drawn) [compound 314, benzo[b]thiophene-3-carboxylic acid {4-[dimethylamino-(3-fluoro-phenyl)-methyl]-cyclohexylmethyl}-amide] | 97% | 4.2 nM | – | – |
